In patent publication US20250289812A1, “COMPOUND FOR TREATING THROMBOTIC DISEASES” (SHANGHAI INSTITUTE OF MATERIA MEDICA, CHINESE ACADEMY OF …, priority 2020, published 2025):

Columns and labels:
[1] = biological target: Src kinase SH3 domain protein (Homo sapiens (Human), UniProt P12931); assay: Surface plasmon resonance (SPR) determination of dissociation constants with SH3 protein; format: binding; details: SH3 protein coupled to CM5 chip
Description: 1. Experimental method: Surface plasmon resonance test was carried out on BIACORE T200 instrument (GE Company). Fresh purified grade Src kinase SH3 domain protein (concentration 2 mg/ml) was diluted to 0.1 mg/ml with 10 mM CH3COONa (pH 4.2) and then SH3 protein was coupled to the CM5 chip by standard amino coupling methods. The compounds of the invention were diluted in a gradient using a buffer solution (20 mM Tris-HCl, PH 8.0, 100 mM NaCl) for 60 seconds and dissociated for 120 seconds at a flow rate of […], respectively. The changes in response values over time were recorded and analyzed by the BIA Evaluation Software (GE Healthcare) program to obtain the dissociation constants KD for the different compounds with SH3 protein.
2. Experimental results and conclusions: The dissociation constants KD of different compounds and SH3 protein were described in Table 2, and the surface plasmon resonance (SPR) experimental results of some compounds were shown in FIG. 1.

[2] = system: platelets on solid phase fibrinogen; assay: Effect of compound on platelet stretching on solid phase fibrinogen; format: cell-based; details: 1 h, washed platelets, incubated 60 min at 37° C., read-out: Concentration range for compounds that inhibit platelet stretching on fibrinogen
Description: 1. Experimental method: Firstly, 50 μl fibrinogen (0.1M, diluted with pH 8.3 sodium bicarbonate, 20 μg/ml) was added to 96-well plate, and coated overnight at 4° C. After being washed by PBS for 3 times in the morning, sealed with bovine serum albumin (20 mg/ml) at 37° C. for 60 min, then 100 μl of washed platelet suspension was taken, and added into compounds in each group to make the final concentration 250 μM, and incubated at 37° C. for 60 min. 50 μl of incubated platelets were added to 96-well plate, adhered in a temperature box at 37° C. for 60 min, unadhered platelets were removed by PBS washing for 3 times, and adhered platelets were stably fixed with 4% paraformaldehyde, and washed with PBS for 3 times. Then the platelet membrane was perforated with 0.5% Triton X-100, and then the platelet was stained with 0.5 μg/ml phalloidin-rhodamine for 60 min at 37° C. and washed 3 times (10 min each) with PBS.
2. Experimental results and conclusions: The concentration of different compounds on platelet stretching on fibrinogen was shown in Table 3, and the inhibitory effect of some compounds on platelet stretching was shown in FIG. 2.

Chain of Src kinase SH3 domain protein (P12931 whole entry, looked up, the tested form may be a part): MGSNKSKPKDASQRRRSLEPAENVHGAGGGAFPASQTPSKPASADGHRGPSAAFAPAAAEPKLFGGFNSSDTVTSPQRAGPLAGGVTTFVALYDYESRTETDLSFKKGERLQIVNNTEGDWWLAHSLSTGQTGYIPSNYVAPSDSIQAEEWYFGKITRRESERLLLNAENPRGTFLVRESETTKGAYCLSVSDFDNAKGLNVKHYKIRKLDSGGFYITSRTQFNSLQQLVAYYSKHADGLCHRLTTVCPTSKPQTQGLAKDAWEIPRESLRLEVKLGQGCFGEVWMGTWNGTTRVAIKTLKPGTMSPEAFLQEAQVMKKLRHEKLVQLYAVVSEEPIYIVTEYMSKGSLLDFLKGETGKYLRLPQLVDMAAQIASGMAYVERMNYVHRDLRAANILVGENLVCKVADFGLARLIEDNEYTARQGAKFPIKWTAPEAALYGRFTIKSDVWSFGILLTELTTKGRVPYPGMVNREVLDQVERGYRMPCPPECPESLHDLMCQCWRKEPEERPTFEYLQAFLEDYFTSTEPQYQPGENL

Kd [1] [nM] | Structure (SMILES) | minimal effective concentration [2] [µM]
< 1000 | CCOC(=O)c1c(CNC(=N)N)n(C)c2cc(-c3cncc4ccccc34)ccc12 [SYY-C073] | 10 to 100
10000 to 100000 | CCOC(=O)c1c(CNC(=N)N)n(C)c2cc(-c3cccc4cnccc34)ccc12 [SYY-C074] | 10 to 100
< 1000 | CCOC(=O)c1c(CNC(=N)N)n(C)c2cc(-c3cccc4cccnc34)ccc12 [SYY-C075] | 10 to 100
1000 to 10000 | CCOC(=O)c1c(CNC(=N)N)n(C)c2cc(-c3ccc(F)c4ccccc34)ccc12 [SYY-C076] | 100 to 250
< 1000 | CCOC(=O)c1c(CNC(=N)N)n(C)c2cc(-c3c4ccccc4cc4ccccc34)ccc12 [SYY-C078] | 10 to 100
< 1000 | CCOC(=O)c1c(CNC(=N)N)n(C)c2cc(-c3cccc4cc(C)ccc34)ccc12 [SYY-C080] | 10 to 100
< 1000 | CCOC(=O)c1c(CNC(=N)N)n(C)c2cc(-c3cccc4cc(F)ccc34)ccc12 [SYY-C098] | 10 to 100
< 1000 | CNC(=O)c1c(CNC(=N)N)n(C)c2cc(-c3cccc4ccccc34)ccc12 [SYY-C099] | 10 to 100
1000 to 10000 | CCOC(=O)c1c(CNC(=N)N)n(C)c2cc(-c3cccc4ccccc34)c(OC)cc12 [SYY-C103] | 100 to 250
< 1000 | CCOC(=O)c1c(CNC(=N)N)n(C)c2cc(-c3cccc4ccccc34)c(Cl)cc12 [SYY-C104] | 10 to 100
< 1000 | CC(=O)Nc1c(CNC(=N)N)n(C)c2cc(-c3cccc4ccccc34)ccc12 [SYY-C105] | 10 to 100
1000 to 10000 | CCOC(=O)c1c(CNC(=N)N)oc2cc(-c3cccc4ccccc34)ccc12 [SYY-C106] | 100 to 250
10000 to 100000 | CCOC(=O)c1c(CNC(=N)N)sc2cc(-c3cccc4ccccc34)ccc12 [SYY-C108] | 100 to 250
< 1000 | CCOC(=O)c1c(CNC(=N)N)n(C)c2cc(-c3cccc4ccccc34)c(OC3CCCC3)cc12 [SYY-C110] | 10 to 100
1000 to 10000 | CCOC(=O)c1c(CNC(=N)N)n(C)c2cc(-c3cccc4ccccc34)c(C3=CCCC3)cc12 [SYY-C111] | 100 to 250
< 1000 | CCOC(=O)c1c(CNC(=N)N)n(C)c2cc(-c3cccc4ccccc34)c(C3CCCC3)cc12 [SYY-C113] | 10 to 100
10000 to 100000 | CCOC(=O)c1c(CNC(=N)N)n(C)c2cc(OC)c(-c3cccc4ccccc34)cc12 [SYY-C114] | 10 to 100
< 1000 | CCOC(=O)c1c(CNC(=N)N)n(C)c2cc(OC3CCCC3)c(-c3cccc4ccccc34)cc12 [SYY-C115] | 10 to 100
< 1000 | CCOC(=O)c1c(CNC(=N)N)sc2cc(-c3cccc4ccccc34)c(OC)cc12 [SYY-C125] | 10 to 100
< 1000 | CCOC(=O)c1c(CNC(=N)N)sc2cc(-c3cccc4ccccc34)c(OC3CCCCC3)cc12 [SYY-C127] | 10 to 100
10000 to 100000 | CCOC(=O)c1c(CNC(=N)N)sc2cc(-c3cccc4ccccc34)c(Oc3ccccc3)cc12 [SYY-C128] | 100 to 250

The remaining lines, values behind:

Structure (SMILES) | Kd [1] [nM] | minimal effective concentration [2] [µM]
CCOC(=O)c1c(CNC(=N)N)n(C)c2cc(-c3cccc4ccncc34)ccc12 [SYY-C077] | < 1000 | 10 to 100
CCOC(=O)c1c(CNC(=N)N)n(C(C)C)c2cc(-c3cccc4ccccc34)ccc12 [SYY-C079] | < 1000 | 10 to 100
CCOC(=O)c1c(CNC(=N)N)n(C)c2cc(-c3cccc4c(C)cccc34)ccc12 [SYY-C081] | < 1000 | 10 to 100
CCOC(=O)c1c(CNC(=N)N)n(-c2ccccc2)c2cc(-c3cccc4ccccc34)ccc12 [SYY-C082] | < 1000 | 10 to 100
CCOC(=O)c1c(CNC(=N)N)n(C)c2cc(-c3ccc(Cl)c4ccccc34)ccc12 [SYY-C083] | 1000 to 10000 | 100 to 250
CCOC(=O)c1c(CNC(=N)N)n(C)c2cc(-c3cccc4c(Cl)cccc34)ccc12 [SYY-C084] | < 1000 | 10 to 100
CCOC(=O)c1c(CNC(=N)N)n(C)c2cc(-c3cc(C)cc4ccccc34)ccc12 [SYY-C085] | < 1000 | 10 to 100
CCOC(=O)c1c(CNC(=N)N)n(C)c2cc(C3=CCOc4ccccc43)ccc12 [SYY-C086] | < 1000 | 10 to 100
CCOC(=O)c1c(CNC(=N)N)n(C)c2cc(-c3cccc4ccc(C)cc34)ccc12 [SYY-C087] | 10000 to 100000 | 100 to 250
CCOC(=O)c1c(CNC(=N)N)n(C)c2cc(-c3c4c(cc5c3CCCC5)CCCC4)ccc12 [SYY-C088] | 10000 to 100000 | 100 to 250
CCOC(=O)c1c(CNC(=N)N)n(C)c2cc(-c3cccc4c(F)cccc34)ccc12 [SYY-C089] | < 1000 | 10 to 100
CCOC(=O)c1c(CNC(=N)N)n(C)c2cc(-c3cc(Cl)cc4ccccc34)ccc12 [SYY-C090] | 1000 to 10000 | 100 to 250
CCOC(=O)c1c(CNC(=N)N)n(C)c2cc(-c3cccc4cccc(C)c34)ccc12 [SYY-C091] | < 1000 | 10 to 100
CCOC(=O)c1c(CNC(=N)N)n(C)c2cc(-c3cc(F)cc4ccccc34)ccc12 [SYY-C092] | 10000 to 100000 | 100 to 250
CCOC(=O)c1c(CNC(=N)N)n(C)c2cc(-c3cccc4cc(Cl)ccc34)ccc12 [SYY-C093] | < 1000 | 10 to 100
CCOC(=O)c1c(CNC(=N)N)n(C)c2cc(-c3cccc4cccc(Cl)c34)ccc12 [SYY-C095] | 10000 to 100000 | 10 to 100
CCOC(=O)c1c(CNC(=N)N)n(C)c2cc(-c3cccc4cccc(F)c34)ccc12 [SYY-C096] | < 1000 | 10 to 100

Structure (SMILES) | Kd [1] [nM] | minimal effective concentration [2] [µM]
CCOC(=O)c1c(CNC(=N)N)n(C)c2cc(-c3cccc4ccc(F)cc34)ccc12 [SYY-C097] | 10000 to 100000 | 10 to 100
CN(C)C(=O)c1c(CNC(=N)N)n(C)c2cc(-c3cccc4ccccc34)ccc12 [SYY-C100] | 1000 to 10000 | 100 to 250
Cn1c(CNC(=N)N)c(C(N)=O)c2ccc(-c3cccc4ccccc34)cc21 [SYY-C101] | < 1000 | 10 to 100
Cn1c(CNC(=N)N)c(C#N)c2ccc(-c3cccc4ccccc34)cc21 [SYY-C102] | < 1000 | 10 to 100
CCOC(=O)c1c(CNC(=N)N)sc2ccc(-c3cccc4ccccc34)cc12 [SYY-C107] | < 1000 | 10 to 100
CCOC(=O)c1c(CNC(=N)N)n(C)c2cc(-c3cccc4ccccc34)c(Br)cc12 [SYY-C109] | < 1000 | 10 to 100
CCOC(=O)c1c(CNC(=N)N)n(C)c2cc(-c3cccc4ccccc34)c(C3CC3)cc12 [SYY-C112] | < 1000 | 10 to 100
CCOC(=O)c1c(CNC(=N)N)n(C)c2cc(C3=CCCC3)c(-c3cccc4ccccc34)cc12 [SYY-C116] | < 1000 | 10 to 100
CCOC(=O)c1c(CNC(=N)N)n(C)c2cc(C3CCCC3)c(-c3cccc4ccccc34)cc12 [SYY-C117] | 10000 to 100000 | 100 to 250
CCOC(=O)c1c(CNC(=N)N)n(C)c2cc(Cl)c(-c3cccc4ccccc34)cc12 [SYY-C118] | < 1000 | 10 to 100
CCOC(=O)c1c(CNC(=N)N)n(C)c2cc(Br)c(-c3cccc4ccccc34)cc12 [SYY-C119] | < 1000 | 10 to 100
CCOC(=O)c1c(CNC(=N)N)n(C)c2cc(C3CC3)c(-c3cccc4ccccc34)cc12 [SYY-C120] | < 1000 | 10 to 100
CCOC(=O)c1c(CNC(=N)N)sc2cc(-c3cccc4ccccc34)c(C3CCCC3)cc12 [SYY-C121] | 1000 to 10000 | 100 to 250
CCOC(=O)c1c(CNC(=N)N)sc2cc(-c3cccc4ccccc34)c(C3CCCCC3)cc12 [SYY-C122] | < 1000 | 10 to 100
CCOC(=O)c1c(CNC(=N)N)sc2cc(-c3cccc4ccccc34)c(C3=CCCC3)cc12 [SYY-C123] | 10000 to 100000 | 100 to 250
CCOC(=O)c1c(CNC(=N)N)sc2cc(-c3cccc4ccccc34)c(C3=CCCCC3)cc12 [SYY-C124] | < 1000 | 10 to 100
CCOC(=O)c1c(CNC(=N)N)sc2cc(-c3cccc4ccccc34)c(OC3CCCC3)cc12 [SYY-C126] | < 1000 | 10 to 100
